# What was measured:
# [1] = Stability in human liver microsomes; type: in vitro ADME; details: for half-life: read-out: T½
# [2] = Stability in mouse liver microsomes; type: in vitro ADME; details: for half-life: read-out: T½
# [3] = Stability in rat liver microsomes; type: in vitro ADME; details: for half-life: read-out: T½
# [4] = cited from earlier work
# [5] = Phase 1 multiple-ascending dose study, plasma pharmacokinetics in healthy subjects; type: in vivo, human; parameters: Geometric mean trough concentration: unit not given here
# Description: The first dose of study drug was given on Day 1. On Days 1 through 6, subjects subsequently received two (q12h) oral doses of study drug each day. A final single dose of study drug was given on Day 7. Each dose of study drug was given with a 240 mL glass of water at the end of ingestion of a standard meal. The meal was provided 30 minutes before dosing and was completed within 30 minutes or less. On Day 1 and Day 7, subjects were required to fast for 8 hours before the morning meal dose and for 2 hours post dose (water was freely available during this time).
# [6] = Plasma concentration-time profile following 50 mg/kg GRX-917 and etifoxine in rats (FIG. 1); type: in vivo, rat
smiles,measurement,setting,value
"CCNC1=Nc2ccc(Cl)cc2C(C)(c2ccccc2)O1 (stereo not shown) [Etifoxine, 6-chloro-2-(ethylamino)-4-methyl-4-phenyl-4H-3,1-benzoxazine]",microsomal CLint,[1],309 µL/min/mg
same,half-life,[1],22 min
same,microsomal CLint,[2],657 µL/min/mg
same,half-life,[2],11 min
same,microsomal CLint,[3],915 µL/min/mg
same,half-life,[3],8 min
same,Auto-induction of CYP enzyme(s) on continued dosing,[4]; continued dosing over time,exhibits an auto-induction effect
same,Half-life in humans,[4]; humans,240 to 360 min
"[2H]C([2H])([2H])C([2H])([2H])NC1=Nc2ccc(Cl)cc2C(C)(c2ccccc2)O1 (racemic) [Deuterated Etifoxine, 6-chloro-N-(ethyl-d5)-4-methyl-4-phenyl-4H-3,1-benzoxazin-2-amine]",Induction of metabolism,[5]; 100 mg bid,did not induce metabolism
same,Geometric mean trough concentration,"[5]; 100 mg q12 h, Day 1",11.6
same,Geometric mean trough concentration,"[5]; 100 mg q12 h, Day 2",36.1
same,Geometric mean trough concentration,"[5]; 100 mg q12 h, Day 4",39.3
same,Geometric mean trough concentration,"[5]; 100 mg q12 h, Day 5",31.9
same,Geometric mean trough concentration,"[5]; 100 mg q12 h, Day 6",34.0
same,Geometric mean trough concentration,"[5]; 100 mg q12 h, Day 7 (12-hr post-dose)",27.1
same,Geometric mean trough concentration,"[5]; 100 mg q12 h, Day 7 (pre-dose)",27.7
same,Induction of metabolism,[5]; 150 mg bid (twice daily),induces metabolism
same,Geometric mean trough concentration,"[5]; 150 mg q12 h, Day 1",28.1
same,Geometric mean trough concentration,"[5]; 150 mg q12 h, Day 2",43.8
same,Geometric mean trough concentration,"[5]; 150 mg q12 h, Day 4",44.5
same,Geometric mean trough concentration,"[5]; 150 mg q12 h, Day 5",39.2
same,Geometric mean trough concentration,"[5]; 150 mg q12 h, Day 6",37.7
same,Geometric mean trough concentration,"[5]; 150 mg q12 h, Day 7 (12-hr post-dose)",31.4
same,Geometric mean trough concentration,"[5]; 150 mg q12 h, Day 7 (pre-dose)",33.3
same,Geometric mean trough concentration,"[5]; 200 mg q12 h, Day 1",42.8
same,Geometric mean trough concentration,"[5]; 200 mg q12 h, Day 2",72.3
same,Geometric mean trough concentration,"[5]; 200 mg q12 h, Day 4",67.2
same,Geometric mean trough concentration,"[5]; 200 mg q12 h, Day 5",62.4
same,Geometric mean trough concentration,"[5]; 200 mg q12 h, Day 6",53.7
same,Geometric mean trough concentration,"[5]; 200 mg q12 h, Day 7 (12-hr post-dose)",51.4
same,Geometric mean trough concentration,"[5]; 200 mg q12 h, Day 7 (pre-dose)",58.9
same,Geometric mean trough concentration,"[5]; 300 mg q12 h, Day 1",54.9
same,Geometric mean trough concentration,"[5]; 300 mg q12 h, Day 2",87.4
same,Geometric mean trough concentration,"[5]; 300 mg q12 h, Day 4",71.0
same,Geometric mean trough concentration,"[5]; 300 mg q12 h, Day 5",70.0
same,Geometric mean trough concentration,"[5]; 300 mg q12 h, Day 6",66.3
same,Geometric mean trough concentration,"[5]; 300 mg q12 h, Day 7 (12-hr post-dose)",60.4
same,Geometric mean trough concentration,"[5]; 300 mg q12 h, Day 7 (pre-dose)",63.0
same,Tmax dependence on dose,"[5]; Day 7, statistical analysis",independent of dose
same,half-life,"[5]; both sexes, human, plasma, oral, Day 7, read-out: Geometric mean t1/2",38.8 to 82.1 h
same,Tmax,"[5]; both sexes, human, plasma, single and multiple oral doses of 100-300 mg q12h, post-dose, read-out: Median Tmax",120 to 211 min
same,Fraction of dose excreted as deuterated etifoxine,[5]; renal elimination,< 0.004%
same,microsomal CLint,[1],170 µL/min/mg
same,half-life,[1],41 min
same,microsomal CLint,[2],464 µL/min/mg
same,half-life,[2],15 min
same,AUC as compared to etifoxine,[6],approximately 3 fold
same,microsomal CLint,[3],503 µL/min/mg
same,half-life,[3],14 min

# Source: patent US20240189316A1, “DEUTERATED ANALOGS OF ETIFOXINE AND METHODS OF ADMINISTRATION WITHOUT AUTOINDUCTION OF METABOLISM” (Gaba Therapeutics Inc., priority 2022, published 2024)
